Measurements from patent US20090209019A1, “Bioartificial Renal Tubule” (TOKAI UNIVERSITY EDUCATIONAL SYSTEM, priority 2006, published 2009).
Like-named read-outs stand apart in the source and are kept apart here. Marks after values point to notes of the source that are not given here.

What was measured:
[1] = tested on: Madin-Darby canine kidney (MDCK) cells; conditions: cells lacking contact inhibition by action of HGF; cited from earlier work
[2] = tested on: LLC-PK1 cells; conditions: 50 μM U0126 and 1% DMSO in DMEM-HG, 0 day to sixth day
Protocol: On each transwell filter unit, 2×10^6 Lewis-lung cancer porcine kidney (LLC-PK1) cells, which were cryopreserved porcine proximal renal tubular epithelial cell lines, were seeded. […] The LLC-PK1 cells on 0 day, the first day, the second day, the third day, and the sixth day after seeding were colored with trypan blue and then measured for number for each group. The LLC-PK1 cells were gently washed with a sterilized PBS solution containing no magnesium or calcium and were then trypsin-treated with 1 ml of a trypsin-EDTA solution at 37° C. for 15 minutes. The treated cells (1 ml) were added to 4 ml of DMEM, were colored with trypan blue, and were then measured for number with a hemocytometer. Measurement was performed three times for each group.

[3] = tested on: LLC-PK1 cells; conditions: DMEM medium containing 50 μg/ml U0126 for two weeks
Excerpt: In both groups, the medium was circulated outside the hollow fibers of the module in a closed system. […] On the fourth day after culture, three of the modules of each group were fixed with glutaraldehyde and were then observed in vertical cross section by scanning electron microscopy (SEM).

[4] = tested on: ERK1/2
Protocol: In each of 6-well plates, 5×10^5 LLC-PK1 cells were seeded. The cells were divided into three groups on the following day (0 day). […] Then the media (D) and (U) were replaced with a DMEM-HG medium. The cells of each group were further cultured for three days. The cells were subjected to Western blot analysis for ERK1/2 on 0 day, the first day, the second day, the third day, and the sixth day.
The cultured LLC-PK1 cells were used in the form of a cytolytic solution for Western blot analysis. The sampled cells of each group were rinsed with ice-chilled PBS and were then centrifuged at 4° C. for five minutes at 1500 rpm. The centrifugate was collected and then maintained at −80° C.
Proteins were taken from 50 μL of each of ice-chilled cytolytic solutions containing 20 mM Tris-HCl (pH 7.5), 150 mM NaCl, 1 mM Na2EDTA, 1 mM EGTA, 1% Triton, 2.5 mM sodium pyrophosphate, 1 mM β-glycerophosphate, 1 mM Na3VO4 (sodium orthovanadate), and 1 μg/ml leupeptin. The proteins were centrifuged at 4° C. for 15 minutes at 15000×g, whereby soluble proteins were extracted. The protein concentration of each cytolytic solution was measured with a protein assay kit (Protein Assay Rapid Kit; Wako, Osaka, Japan). […] Proteins (20 μg) in each LLC-PK1 cytolytic solution were analyzed with SDS-PAGE (polyacrylamide gel electrophoresis) using a 12.5% polyacrylamide gel (e-PAGEL; ATTO, Tokyo, Japan). […]

[5] = tested on: MEN-1 and MEK-2; conditions: cited from earlier work
[6] = tested on: AP-1 transactivation; conditions: cited from earlier work
[7] = tested on: LLC-PK1 cells
Protocol: In lumens of hollow fibers made of an ethylene-vinyl alcohol (EVAL) copolymer, which forms membranes placed in mini-modules (a membrane area of 65 cm^2), 2×10^8 […] (LLC-PK1) cells, which were porcine proximal renal tubular epithelial cell lines, were seeded. The cells were cultured in such a manner that a DMEM-HG medium was circulated inside and outside the hollow fibers at a rate of 0.25 ml/min. In this operation, the transmembrane pressure was maintained at zero. […] The leakage of urea nitrogen, the leakage of creatinine, the amount of reabsorbed glucose, and the amount of reabsorbed Na^+ were measured for 24 hours.
Method of measuring absorption and leakage: the absorption and leakage are calculated using the following formula:
Absorption rate (leaking rate)=(C0×V0−CI×(VI−VR))/C2V2
wherein C0 represents the concentration of a substance in a discharged external solution, V0 represents the volume of the discharged external solution, CI represents the concentration of the substance in a fed external solution, VI represents the volume of the fed external solution, VR represents the volume of the external solution remaining outside the hollow fibers at the end of an experiment, C2 represents the concentration of the substance in a fed internal solution, and V2 represents the volume of the fed internal solution.

[8] = tested on: LLC-PK1 cells; conditions: 1% DMSO, DMEM-HG, 0 day to third day
Protocol: On each 6-well plate, 5×10^5 LLC-PK1 cells were seeded. […] Furthermore, two groups of the cells cultured in (4) a DMEM-HG medium and (5) a DMEM-HG medium containing 1% DMSO were checked. The cells on 0 day, the first day, the second day, and the third day after seeding were colored with trypan blue and then measured for number.

[9] = 50 μM U0126, days 3-4, mean ± SEM, n = 4

SMILES	contact inhibition of MDCK cells [1]	change in number of LLC-PK1 cells [2]	maintenance of confluent monolayer in hollow fibers (SEM), FIG. 5 legend [3]	activated ERK1/2 ([4]; 50 μM U0126 and 1% DMSO, first, second and third day)	activated ERK1/2 after replacing the medium with U0126-free DMEM-HG ([4]; sixth day, three days after removal of U0126)	inhibition of MEK-1 and MEK-2 [5]	AP-1 transactivation [6]	amount of reabsorbed Na+ compared with control group ([7]; 50 μM U0126)	amount of reabsorbed glucose compared with control group ([7]; 50 μM U0126)	leakage of creatinine (Cr) compared with control group ([7]; 50 μM U0126)	leakage of urea nitrogen (UN) compared with control group ([7]; 50 μM U0126)	Leakage Cr [7, 9]	Leakage UN [7, 9]	Reabsorption Glucose [7, 9]	Reabsorption Na+ [7, 9]	change in number of LLC-PK1 cells ([8]; 10 μM)	change in number of LLC-PK1 cells ([8]; 30 μM)	change in number of LLC-PK1 cells ([8]; 50 μM)
COc1cccc(-c2cc(=O)c3ccccc3o2)c1N [PD-98059]	restoring the contact inhibition	–	–	–	–	–	–	–	–	–	–	–	–	–	–	–	–	–
N#CC(=C(N)Sc1ccccc1N)C(C#N)=C(N)Sc1ccccc1N [U0126, 1,4-diamino-2,3-dicyano-1,4-bis[2-aminophenylthio]butadiene]	restoring the contact inhibition	prevented from significantly increasing in number	confluent monolayers are substantially maintained	suppressed	Activated ERK1/2 is expressed	direct inhibition	suppressor of AP-1 transactivation	significantly greater	greater than that in the control group, though there is no significant difference	less than that in the control group, though there is no significant difference	significantly less	3.3 ± 0.5%	3.6 ± 0.7^b %	63.9 ± 19.7 mg/day	1.26 ± 0.10^b mEq/day	not sufficiently prevented from increasing in number	clearly prevented from proliferating	clearly prevented from proliferating
